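Cells were grown in 96-well plates and exposed to each compound for 48 hours at five concentrations; endpoints were interpolated linearly between bracketing concentrations, or set to the highest concentration if not reached. GI50 = concentration required for 50% inhibition of growth.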 Calls of active or inactive are those of the source. Rule as the data show it: active = GI50 up to about 1.1 µM and inactive = higher.
Experiments:
Assay in all cases: inhibition of tumour cell growth, NCI panel, 48 h
SN12C = tested on: SN12C
UACC-257 = tested on: UACC-257
SK-MEL-5 = tested on: SK-MEL-5
NCI-H23 = tested on: NCI-H23
IGROV-1 = tested on: IGROV-1
OVCAR-4 = tested on: OVCAR-4
CCRF-CEM = tested on: CCRF-CEM
EKVX = tested on: EKVX
RPMI-8226 = tested on: RPMI-8226
SF-295 = tested on: SF-295
TK-10 = tested on: TK-10
SF-539 = tested on: SF-539
RXF 393 = tested on: RXF 393
LOX IMVI = tested on: LOX IMVI
SW-620 = tested on: SW-620
786-0 = tested on: 786-0
SNB-75 = tested on: SNB-75
A549 = tested on: A549
K562 = tested on: K562
HCT-15 = tested on: HCT-15

| Compound | GI50 (SN12C) | GI50 (UACC-257) | GI50 (SK-MEL-5) | GI50 (NCI-H23) | GI50 (IGROV-1) | GI50 (OVCAR-4) | GI50 (CCRF-CEM) | GI50 (EKVX) | GI50 (RPMI-8226) | GI50 (SF-295) | GI50 (TK-10) | GI50 (SF-539) | GI50 (RXF 393) | GI50 (LOX IMVI) | GI50 (SW-620) | GI50 (786-0) | GI50 (SNB-75) | GI50 (A549) | GI50 (K562) | GI50 (HCT-15) [µM] |
| --- | --- | --- | --- | --- | --- | --- | --- | --- | --- | --- | --- | --- | --- | --- | --- | --- | --- | --- | --- | --- |
| CC12CCC(O)CC1CCC1C2CCC2(C)C(C(=O)CC(O)C(F)(F)F)CCC12 (stereo not given) | > 100 µM (inactive) | 21.6 µM (inactive) | 28.4 µM (inactive) | 40.9 µM (inactive) | > 67.8 µM (inactive) | > 100 µM (inactive) | 25.6 µM (inactive) | 40.4 µM (inactive) | 4.04 µM (inactive) | 8.73 µM (inactive) | 53.7 µM (inactive) | 35.2 µM (inactive) | 7.87 µM (inactive) | 7 µM (inactive) | 40.5 µM (inactive) | 7.46 µM (inactive) | 19.3 µM (inactive) | 28.9 µM (inactive) | 3.8 µM (inactive) | 9.06 |
| CCCCCCNC(=O)C1=C(C)NC(C)=C(C(=O)NCCCCCC)C1 | > 100 µM (inactive) | > 100 µM (inactive) | > 100 µM (inactive) | > 100 µM (inactive) | > 100 µM (inactive) | > 100 µM (inactive) | 70.3 µM (inactive) | > 100 µM (inactive) | > 100 µM (inactive) | > 100 µM (inactive) | > 100 µM (inactive) | > 100 µM (inactive) | > 100 µM (inactive) | > 100 µM (inactive) | > 100 µM (inactive) | > 100 µM (inactive) | 51.9 µM (inactive) | > 100 µM (inactive) | 65.8 µM (inactive) | > 100 |
| CNNC(=NS(=O)(=O)c1cc(C#N)c(NNC)cc1S)NNC | > 10 µM (inactive) | > 10 µM (inactive) | > 10 µM (inactive) | > 10 µM (inactive) | > 10 µM (inactive) | > 10 µM (inactive) | > 10 µM (inactive) | > 10 µM (inactive) | > 10 µM (inactive) | > 10 µM (inactive) | > 10 µM (inactive) | > 10 µM (inactive) | > 10 µM (inactive) | > 10 µM (inactive) | > 10 µM (inactive) | > 10 µM (inactive) | > 10 µM (inactive) | > 10 µM (inactive) | > 10 µM (inactive) | > 10 |
| O=C1/C(=C/c2ccccc2)CN(C(=O)C(Cl)(Cl)Cl)C/C1=C\c1ccccc1 | 1.72 µM (inactive) | 1.58 µM (inactive) | 1.15 µM (inactive) | 2.37 µM (inactive) | 2.06 µM (inactive) | 1.73 µM (inactive) | 0.551 µM (active) | 9.23 µM (inactive) | 0.0348 µM (active) | 1.82 µM (inactive) | 2.57 µM (inactive) | 3.12 µM (inactive) | 1.89 µM (inactive) | 0.94 µM (active) | 0.546 µM (active) | 2.89 µM (inactive) | 3.27 µM (inactive) | 13.9 µM (inactive) | 0.43 µM (active) | 1.68 |
| O=[N+]([O-])/C=C/c1cn(CCCCCCCCn2cc(/C=C/[N+](=O)[O-])c3ccccc32)c2ccccc12 | > 10 µM (inactive) | > 10 µM (inactive) | > 10 µM (inactive) | > 10 µM (inactive) | > 10 µM (inactive) | > 10 µM (inactive) | > 10 µM (inactive) | > 10 µM (inactive) | 0.41 µM (active) | > 10 µM (inactive) | > 10 µM (inactive) | > 10 µM (inactive) | > 10 µM (inactive) | 3.51 µM (inactive) | > 10 µM (inactive) | > 10 µM (inactive) | > 10 µM (inactive) | > 10 µM (inactive) | > 10 µM (inactive) | > 10 |
| Cc1ccc(S(=O)(=O)OC(COC(=O)c2ccccc2)C(OS(=O)(=O)c2ccc(C)cc2)C(OS(=O)(=O)c2ccc(C)cc2)C(COC(=O)c2ccccc2)OS(=O)(=O)c2ccc(C)cc2)cc1 (stereo not given) | > 100 µM (inactive) | > 100 µM (inactive) | > 100 µM (inactive) | > 100 µM (inactive) | > 10 µM (inactive) | > 100 µM (inactive) | > 100 µM (inactive) | > 100 µM (inactive) | > 100 µM (inactive) | > 100 µM (inactive) | > 100 µM (inactive) | > 100 µM (inactive) | > 100 µM (inactive) | > 100 µM (inactive) | > 100 µM (inactive) | > 100 µM (inactive) | 29.1 µM (inactive) | > 100 µM (inactive) | > 100 µM (inactive) | > 100 |
| Oc1ccccc1C1C=C(c2ccccc2)NC(N2CCCCC2)=C1c1nc2ccccc2[nH]1 (stereo not given) | 16.1 µM (inactive) | 16 µM (inactive) | 13.9 µM (inactive) | 15.3 µM (inactive) | 14.6 µM (inactive) | 13.3 µM (inactive) | 17.1 µM (inactive) | 6.11 µM (inactive) | 9.57 µM (inactive) | 15.5 µM (inactive) | 19.9 µM (inactive) | 15.9 µM (inactive) | 11.4 µM (inactive) | 17 µM (inactive) | 16.3 µM (inactive) | 12.7 µM (inactive) | 4.57 µM (inactive) | 15.7 µM (inactive) | 8.05 µM (inactive) | 18.2 |
| CC1(C)OCC[C@@H]1[Si](C)(C)C | > 100 µM (inactive) | > 100 µM (inactive) | 26.9 µM (inactive) | 53.6 µM (inactive) | > 100 µM (inactive) | 55.3 µM (inactive) | 26.9 µM (inactive) | 26.2 µM (inactive) | 29.6 µM (inactive) | 90.8 µM (inactive) | 73.5 µM (inactive) | > 100 µM (inactive) | 16.5 µM (inactive) | 56.9 µM (inactive) | > 100 µM (inactive) | > 100 µM (inactive) | 52.1 µM (inactive) | > 100 µM (inactive) | 21.4 µM (inactive) | 32.4 |
| Cc1cccc(C)c1NC(=O)C(=O)C1C(=O)N(c2ccccc2)N=C1N (stereo not given) | > 100 µM (inactive) | > 100 µM (inactive) | > 100 µM (inactive) | > 100 µM (inactive) | > 100 µM (inactive) | > 100 µM (inactive) | > 100 µM (inactive) | > 100 µM (inactive) | > 100 µM (inactive) | > 100 µM (inactive) | > 100 µM (inactive) | > 100 µM (inactive) | > 100 µM (inactive) | > 100 µM (inactive) | > 100 µM (inactive) | > 100 µM (inactive) | 94.4 µM (inactive) | > 100 µM (inactive) | > 100 µM (inactive) | > 100 |
| O=C1C=C(Br)c2c(-c3ccccc3)oc3cccc1c23 | > 88.1 µM (inactive) | > 100 µM (inactive) | 54.3 µM (inactive) | > 52.6 µM (inactive) | 32.3 µM (inactive) | 7.5 µM (inactive) | 7.48 µM (inactive) | 25.4 µM (inactive) | > 39.3 µM (inactive) | 22.9 µM (inactive) | 38.1 µM (inactive) | 23.2 µM (inactive) | 23.6 µM (inactive) | > 49 µM (inactive) | > 100 µM (inactive) | 51.8 µM (inactive) | 5.45 µM (inactive) | > 81.5 µM (inactive) | > 50.9 µM (inactive) | > 45.7 |
| COc1cc2c(cc1O)CC[C@@H]1C2CC[C@@]2(C)C1CC[C@@H]2O (stereo not given in full) | 6.85 µM (inactive) | 11.2 µM (inactive) | 1.35 µM (inactive) | 2.05 µM (inactive) | 5.51 µM (inactive) | 29.6 µM (inactive) | 0.689 µM (active) | 6.17 µM (inactive) | 0.57 µM (active) | 3.16 µM (inactive) | 14 µM (inactive) | 0.807 µM (active) | 6.24 µM (inactive) | 2.89 µM (inactive) | 0.635 µM (active) | 2.07 µM (inactive) | 1.07 µM (active) | 4.48 µM (inactive) | 0.312 µM (active) | 0.566 |
| COc1ccc(NC(=O)C(=O)NO)c(OC)c1 | 20 µM (inactive) | 22.2 µM (inactive) | 18.5 µM (inactive) | 18.6 µM (inactive) | 15.4 µM (inactive) | 17.7 µM (inactive) | 23 µM (inactive) | 14.9 µM (inactive) | 15.1 µM (inactive) | 14 µM (inactive) | 22.4 µM (inactive) | 20.9 µM (inactive) | 15.6 µM (inactive) | 14.2 µM (inactive) | 18.7 µM (inactive) | 16 µM (inactive) | 16.5 µM (inactive) | 19.6 µM (inactive) | 19.8 µM (inactive) | 16.3 |
| Cc1ccc([N+](=O)[O-])cc1S(=O)(=O)Nc1ccc(C2=NN(c3ccc([N+](=O)[O-])cc3[N+](=O)[O-])C(c3ccccc3)C2)cc1 (stereo not given) | 17.2 µM (inactive) | 16.2 µM (inactive) | 11.9 µM (inactive) | 14.6 µM (inactive) | 16.6 µM (inactive) | 19.8 µM (inactive) | 22.1 µM (inactive) | 18.6 µM (inactive) | 9.27 µM (inactive) | 14.3 µM (inactive) | 26.4 µM (inactive) | 20.3 µM (inactive) | 14.8 µM (inactive) | 17.1 µM (inactive) | 32.5 µM (inactive) | 15.4 µM (inactive) | 22.5 µM (inactive) | 19.1 µM (inactive) | 16 µM (inactive) | 14.6 |
| Cc1ccc2c(O)cc(-c3ccccc3)nc2n1 | 0.416 µM (active) | 0.285 µM (active) | 0.0512 µM (active) | 0.313 µM (active) | 0.11 µM (active) | 5.24 µM (inactive) | 0.0887 µM (active) | 1.74 µM (inactive) | 0.115 µM (active) | 0.0585 µM (active) | 0.12 µM (active) | 0.191 µM (active) | 0.127 µM (active) | 0.116 µM (active) | 0.0389 µM (active) | 0.222 µM (active) | 0.0664 µM (active) | 0.221 µM (active) | 0.0366 µM (active) | 0.0352 |

Source: ChEMBL document CHEMBL1201862, “PubChem BioAssay data set” (2004)
